Residue numbers refer to the chain shown, from its start.
The molecules below were run against T1, CK1δ Q399* (Homo sapiens, UniProt P48730) (assay: in vitro kinase assay, CK1δ mutant Q399*). Conditions: inhibitor at IC50 concentration previously determined for CK1δ WT; DMSO control = 100%; adjusted to WT = 50%; mean ± SD.
T1 sequence (P48730 1-398): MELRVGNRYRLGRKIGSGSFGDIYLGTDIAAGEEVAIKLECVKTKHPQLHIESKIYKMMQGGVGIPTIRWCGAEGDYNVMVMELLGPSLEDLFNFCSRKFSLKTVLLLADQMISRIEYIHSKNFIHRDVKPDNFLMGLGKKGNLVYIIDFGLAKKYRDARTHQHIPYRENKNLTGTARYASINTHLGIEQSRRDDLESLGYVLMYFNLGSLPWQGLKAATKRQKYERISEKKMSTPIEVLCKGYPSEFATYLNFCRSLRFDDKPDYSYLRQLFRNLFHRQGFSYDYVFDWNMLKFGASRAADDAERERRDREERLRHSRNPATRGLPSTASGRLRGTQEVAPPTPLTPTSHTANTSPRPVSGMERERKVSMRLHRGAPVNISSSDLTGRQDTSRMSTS
Format: biochemical
Protocol: (§1) Overexpression and purification of GST-CK1δ fusion proteins, either wild type or mutant, were performed as described previously.
(§2) Each kinase assay reaction was performed in kinase buffer (25 mM Tris-HCl (pH 7.5), 10 μM ATP, 10 mM MgCl2, 100 μM EDTA) in presence of purified GST-CK1δ kinase as source of enzyme (either wild type or mutant), an assay-specific substrate (α-casein, GST-p53^1−64, or GST-β-catenin^1−181), and radiolabeled ATP (2 μCi [γ-^32P]-ATP). For performing Michaelis–Menten analysis increasing substrate concentrations were used (α-casein: 0.39−25 μM; GST-p53^1−64: 0.09−1.87 μM; GST-β-catenin^1−181: 0.07−1.32 μM). For biological evaluation of small molecule inhibitors (SMIs), each inhibitor compound was either tested at 10 μM concentration for initial screening or by using a dilution series (0.005−10 µM) for determination of IC50 values. DMSO was used as control. Reactions were incubated for 30 min at 30 °C and reactions were stopped using 5x SDS-loading buffer (250 mM Tris-HCl [pH 6.8], 25% (v/v) β-mercaptoethanol (MSH), 50% (v/v) glycerol, 10% (w/v) SDS, 0.5% (w/v) bromphenol blue). Subsequently, samples were separated by SDS-PAGE using 12.5% acrylamide gels, stained with Coomassie, and phosphorylated substrates were visualized on X-ray film. Incorporation of radiolabeled phosphate was quantified by scintillation counting of Coomassie-stained substrate bands. Defined dilutions of the reaction master mix were counted as well in order to convert results obtained as counts per minute (CPM) to units of transferred phosphate in pmol/min. Michaelis–Menten analysis was performed using GraphPad Prism 6 (GraphPad Software, San Diego, CA, USA).
O=C(Nc1nc2ccc(C(F)(F)F)cc2[nH]1)c1csc(NC(=O)c2ccccc2OC(F)(F)F)n1 [Bischof-5] was tested, and the “Residual activity of CK1δ Q399*” value was 75 ± 30%.
In the case of Cc1ccc2nc(NC(=O)CSc3nc4c(c(=O)n3-c3ccccc3)SCC4)sc2c1 [IWP-2], the “Residual activity of CK1δ Q399*” value is reported as 53 ± 27%.
For COc1ccccc1-n1c(SCC(=O)Nc2nc3ccc(C)cc3s2)nc2c(c1=O)SCC2 [IWP-4], the “Residual activity of CK1δ Q399*” value was 96 ± 79%.

These molecules were tested against T2, CK1δ R127L (Homo sapiens, UniProt P48730, R127L) (assay: in vitro kinase assay, CK1δ mutant R127L). Conditions: inhibitor at IC50 concentration previously determined for CK1δ WT; DMSO control = 100%; adjusted to WT = 50%; mean ± SD.
T2 sequence (P48730 1-415 R127L): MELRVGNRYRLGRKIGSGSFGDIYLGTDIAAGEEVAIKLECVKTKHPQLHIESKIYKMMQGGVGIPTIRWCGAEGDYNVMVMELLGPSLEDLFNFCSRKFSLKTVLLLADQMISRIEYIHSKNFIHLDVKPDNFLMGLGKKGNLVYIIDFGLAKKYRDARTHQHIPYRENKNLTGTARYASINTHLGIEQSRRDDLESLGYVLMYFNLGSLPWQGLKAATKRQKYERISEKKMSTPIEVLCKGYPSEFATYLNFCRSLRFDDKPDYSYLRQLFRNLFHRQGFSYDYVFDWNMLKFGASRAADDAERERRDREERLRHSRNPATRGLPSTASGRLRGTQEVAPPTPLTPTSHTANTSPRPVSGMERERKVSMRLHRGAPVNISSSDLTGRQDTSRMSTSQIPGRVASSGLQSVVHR
Format: biochemical
Protocol: as §1, §2
In the case of O=C(Nc1nc2ccc(C(F)(F)F)cc2[nH]1)c1csc(NC(=O)c2ccccc2OC(F)(F)F)n1 [Bischof-5], the “Residual activity of CK1δ R127L” value is reported as 50 ± 11%.
Cc1ccc2nc(NC(=O)CSc3nc4c(c(=O)n3-c3ccccc3)SCC4)sc2c1 [IWP-2] was tested, and the “Residual activity of CK1δ R127L” value was 42 ± 9%.
For COc1ccccc1-n1c(SCC(=O)Nc2nc3ccc(C)cc3s2)nc2c(c1=O)SCC2 [IWP-4], the “Residual activity of CK1δ R127L” value was 48 ± 10%.

Each molecule was assayed against T3, CK1δ R115H (Homo sapiens, UniProt P48730, R115H) (assay: in vitro kinase assay, CK1δ mutant R115H). Conditions: inhibitor at IC50 concentration previously determined for CK1δ WT; DMSO control = 100%; adjusted to WT = 50%; mean ± SD.
T3 sequence (P48730 1-415 R115H): T2 sequence (P48730 1-415 R127L) with R115H, L127R
Format: biochemical
Protocol: as §1, §2
In the case of O=C(Nc1nc2ccc(C(F)(F)F)cc2[nH]1)c1csc(NC(=O)c2ccccc2OC(F)(F)F)n1 [Bischof-5], the “Residual activity of CK1δ R115H” value is reported as 36 ± 10%.
Cc1ccc2nc(NC(=O)CSc3nc4c(c(=O)n3-c3ccccc3)SCC4)sc2c1 [IWP-2] was tested, and the “Residual activity of CK1δ R115H” value was 71 ± 34%.
In the case of COc1ccccc1-n1c(SCC(=O)Nc2nc3ccc(C)cc3s2)nc2c(c1=O)SCC2 [IWP-4], the “Residual activity of CK1δ R115H” value is reported as 46 ± 5%.

These molecules were tested against T4, CK1δ R299Q (Homo sapiens, UniProt P48730, R299Q) (assay: in vitro kinase assay, CK1δ mutant R299Q). Conditions: inhibitor at IC50 concentration previously determined for CK1δ WT; DMSO control = 100%; adjusted to WT = 50%; mean ± SD.
T4 sequence (P48730 1-415 R299Q): T2 sequence (P48730 1-415 R127L) with L127R, R299Q
Format: biochemical
Protocol: as §1, §2
In the case of O=C(Nc1nc2ccc(C(F)(F)F)cc2[nH]1)c1csc(NC(=O)c2ccccc2OC(F)(F)F)n1 [Bischof-5], the “Residual activity of CK1δ R299Q” value is reported as 64 ± 22%.
In the case of Cc1ccc2nc(NC(=O)CSc3nc4c(c(=O)n3-c3ccccc3)SCC4)sc2c1 [IWP-2], the “Residual activity of CK1δ R299Q” value is reported as 36 ± 20%.
For COc1ccccc1-n1c(SCC(=O)Nc2nc3ccc(C)cc3s2)nc2c(c1=O)SCC2 [IWP-4], the “Residual activity of CK1δ R299Q” value was 91 ± 60%.

These molecules were tested against T5, CK1δ R168H (Homo sapiens, UniProt P48730, R168H) (assay: in vitro kinase assay, CK1δ mutant R168H). Conditions: inhibitor at IC50 concentration previously determined for CK1δ WT; DMSO control = 100%; adjusted to WT = 50%; mean ± SD.
T5 sequence (P48730 1-415 R168H): T2 sequence (P48730 1-415 R127L) with L127R, R168H
Format: biochemical
Protocol: as §1, §2
With O=C(Nc1nc2ccc(C(F)(F)F)cc2[nH]1)c1csc(NC(=O)c2ccccc2OC(F)(F)F)n1 [Bischof-5] the “Residual activity of CK1δ R168H” value was 30 ± 16%.
With Cc1ccc2nc(NC(=O)CSc3nc4c(c(=O)n3-c3ccccc3)SCC4)sc2c1 [IWP-2] the “Residual activity of CK1δ R168H” value was 50 ± 9%.
For COc1ccccc1-n1c(SCC(=O)Nc2nc3ccc(C)cc3s2)nc2c(c1=O)SCC2 [IWP-4], the “Residual activity of CK1δ R168H” value was 61 ± 19%.
